Values of other authors, collected in paper PMC4408927 (Nature, 2015).

Columns and labels:
[1] = not given; remark: listed apart in the source

In the case of `CNc1nc(I)nc2c1ncn2[C@H]1C[C@H](OP(=O)(O)O)[C@]2(COP(=O)(O)O)C[C@H]12` [MRS2500, (1′R,2′S,4′S,5′S)-4-(2-Iodo-6-methylaminopurin-9-yl)-1-[(phosphato)methyl]-2(phosphato)bicycle[3.1.0]-hexane], the Arterial thrombosis is listed as “effectively reduces”, the Bleeding time [1] is listed as “moderate prolongation” and the ADP-induced platelet aggregation (platelet aggregation) is listed as “completely blocks”.

For `CC(C)(C)c1ccccc1Oc1ncccc1NC(=O)Nc1ccc(OC(F)(F)F)cc1` [BPTU, 1-(2-(2-(tert-butyl)phenoxy)pyridin-3-yl)-3-(4-(trifluoromethoxy)phenyl)urea], the Effect on bleeding [1] is given as “minimal effect” and the Platelet aggregation (platelet aggregation) is given as “substantially reduces”.
